# Assay results taken from PubChem BioAssay (NCI).
#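 Growth conditions: 96-well plates. Treatment: test compound, 48 hours, 5 concentrations. Analysis: linear interpolation between bracketing concentrations; unreached endpoints set to highest concentration. The concentration for full growth arrest is given as TGI.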
# Legend:
# Assay in all cases: DTP human tumour cell line panel, 48 h
# [1] = test system: KM12 colon
# [2] = test system: SF-539 CNS
# [3] = test system: HOP-92 NSCLC
# [4] = test system: SK-OV-3 ovarian
# [5] = test system: UACC-62 melanoma
# [6] = test system: SNB-75 CNS
# [7] = test system: RXF 393 renal
# [8] = test system: OVCAR-8 ovarian
# [9] = test system: NCI-H522 lung
# [10] = test system: OVCAR-3 ovarian
# [11] = test system: MCF7 breast
# [12] = test system: OVCAR-4 ovarian
# [13] = test system: MALME-3M melanoma
# [14] = test system: BT-549 breast
# [15] = test system: NCI-H226 lung
# [16] = test system: RPMI-8226 leukemia
# [17] = test system: SF-295 CNS
# [18] = test system: LOX IMVI melanoma
# [19] = test system: PC-3 prostate
# [20] = test system: MDA-MB-435
# [21] = test system: M14 melanoma
# [22] = test system: EKVX NSCLC
# [23] = test system: SK-MEL-2 melanoma
# [24] = test system: SN12C renal
# [25] = test system: NCI-H460 lung
# [26] = test system: HOP-62 NSCLC
# [27] = test system: T-47D breast
# [28] = test system: 786-0 renal
# [29] = test system: NCI/ADR-RES ovarian
# [30] = test system: HCC-2998 colon
# [31] = test system: SNB-19 CNS
# [32] = test system: HS 578T breast
# [33] = test system: HCT-116 colon
# [34] = test system: SR leukemia
# [35] = test system: TK-10 renal
# [36] = test system: U251 CNS
# [37] = test system: ACHN renal
# [38] = test system: MDA-N
# [39] = test system: UO-31 renal
# [40] = test system: A498 renal
# [41] = test system: CCRF-CEM leukemia
# [42] = test system: MOLT-4 leukemia
# [43] = test system: UACC-257 melanoma
# [44] = test system: SW-620 colon
# [45] = test system: IGROV1 ovarian
# [46] = test system: SK-MEL-5 melanoma
# [47] = test system: MDA-MB-231 breast
# [48] = test system: HL-60(TB) leukemia
# [49] = test system: CAKI-1 renal
# [50] = test system: A549 NSCLC
# [51] = test system: HT29 colon
# [52] = test system: K-562 leukemia
# [53] = test system: SK-MEL-28 melanoma
# [54] = test system: NCI-H23 lung
# [55] = test system: SF-268 CNS
# [56] = test system: COLO 205 colon
# [57] = test system: HCT-15 colon
# [58] = test system: DU-145 prostate
# [59] = test system: OVCAR-5 ovarian
structure (smiles),measurement,setting,value
CCOC(=O)C1=CN/C(=C(/C)C(=O)OC)SC1C(=O)OCC (centres undefined),TGI,[1],> 100 µM
same,TGI,[2],> 100 µM
same,TGI,[3],> 100 µM
same,TGI,[4],> 100 µM
same,TGI,[5],> 100 µM
same,TGI,[6],> 100 µM
same,TGI,[7],> 100 µM
same,TGI,[8],> 100 µM
same,TGI,[9],> 100 µM
same,TGI,[10],> 100 µM
same,TGI,[11],> 100 µM
same,TGI,[12],> 100 µM
same,TGI,[13],> 100 µM
same,TGI,[14],> 100 µM
same,TGI,[15],> 100 µM
same,TGI,[16],> 100 µM
same,TGI,[17],> 100 µM
same,TGI,[18],> 100 µM
same,TGI,[19],> 100 µM
same,TGI,[20],> 100 µM
same,TGI,[21],> 100 µM
same,TGI,[22],> 100 µM
same,TGI,[23],> 100 µM
same,TGI,[24],> 100 µM
same,TGI,[25],> 100 µM
same,TGI,[26],> 100 µM
same,TGI,[27],> 100 µM
same,TGI,[28],> 100 µM
same,TGI,[29],> 100 µM
same,TGI,[30],> 100 µM
same,TGI,[31],> 100 µM
same,TGI,[32],> 100 µM
same,TGI,[33],> 100 µM
same,TGI,[34],> 100 µM
same,TGI,[35],> 100 µM
same,TGI,[36],> 100 µM
same,TGI,[37],> 100 µM
same,TGI,[38],> 100 µM
same,TGI,[39],> 100 µM
same,TGI,[40],> 100 µM
same,TGI,[41],> 100 µM
same,TGI,[42],> 100 µM
same,TGI,[43],> 100 µM
same,TGI,[44],> 100 µM
same,TGI,[45],> 100 µM
same,TGI,[46],> 100 µM
same,TGI,[47],> 100 µM
same,TGI,[48],> 100 µM
same,TGI,[49],> 100 µM
same,TGI,[50],> 100 µM
same,TGI,[51],> 100 µM
same,TGI,[52],> 31.6 µM
same,TGI,[53],> 100 µM
same,TGI,[54],> 100 µM
same,TGI,[55],> 100 µM
same,TGI,[56],> 100 µM
same,TGI,[57],> 100 µM
same,TGI,[58],> 100 µM
same,TGI,[59],> 100 µM
